The numbers were not newly measured in patent US20100204282A1, “Reverse indoles as 5-lipoxygenase-activating protein (FLAP) inhibitors” (priority 2007, published 2010), which cites them from elsewhere.

For data set [1] the following is noted: for efficacy in asthma: in vivo.
Data set [2] deals with porcine carotid injury model.
Data set [3] deals with rat photochemical model of endothelial injury.
The test system of data set [4] is mouse model of renal ischemia.

Consider `CC(C)c1ccc2c(c1)c(SC(C)(C)C)c(CC(C)(C)C(=O)O)n2Cc1ccc(Cl)cc1` [MK-886, 2-((1-(4-chlorobenzyl)-3-(tert-butylthio)-5-isopropyl-1H-indol-2-yl)methyl)-2-methylpropanoic acid], for which, in data set [1], the efficacy in asthma result is “have efficacy in asthma”. Moreover, the postangioplasty vasoconstrictive response result in data set [2] is given as “decreases the postangioplasty vasoconstrictive response”. The “femoral artery intimal hyperplasia” value in data set [3] is reported as “suppresses femoral artery intimal hyperplasia”. With `CC(C)(O)c1ccccc1CCC(SCC1(CC(=O)O)CC1)c1cccc(C=Cc2ccc3ccc(Cl)cc3n2)c1` (stereo not drawn) [montelukast, [1-[[1-[3-[2-[(7-chloro-2-quinolyl)]vinyl]phenyl]-3-[2-(1-hydroxy-1-methyl-ethyl)phenyl]-propyl]sulfanylmethyl]cyclopropyl]acetic acid], the “efficacy in asthma and allergic rhinitis” value in data set [1] (CysLT1 receptor antagonist) is “efficacious in asthma and allergic rhinitis”.

Regarding `O=C(O)[C@@H](c1ccc(OCc2ccc3ccccc3n2)cc1)C1CCCC1` [BAY X1005, (R)-2-[4-(quinolin-2-yl-methoxy)phenyl]-2-cyclopentyl acetic acid], the efficacy in asthma result in data set [1] is reported as “have efficacy in asthma”. As to `CC(C)(C)Sc1c(CC(C)(C)C(=O)O)n(Cc2ccc(Cl)cc2)c2ccc(OCc3ccc4ccccc4n3)cc12` [MK-0591, 2-((5-((quinolin-2-yl)methoxy)-1-(4-chlorobenzyl)-3-(tert-butylthio)-1H-indol-2-yl)methyl)-2-methylpropanoic acid], the efficacy in asthma result in data set [1] is “have efficacy in asthma”. In the case of `CC(c1cc2ccccc2s1)N(O)C(N)=O` (stereo not drawn) [zileuton], the efficacy in asthma entry in data set [1] was “has efficacy in asthma”. Moreover, the renal ischemia result in data set [4] is listed as “reduce renal ischemia”. Consider `COc1cc(C(=O)NS(=O)(=O)c2ccccc2C)ccc1Cc1cn(C)c2ccc(NC(=O)OC3CCCC3)cc12` [zafirlukast], for which the efficacy in asthma entry in data set [1] was “efficacious in asthma”.
